Like-named read-outs stand apart in the source and are kept apart here.
How the values were obtained:
human M2R = biological target: T1, human M2R (Homo sapiens, UniProt P08172); assay: M2R cAMP signaling (forskolin-stimulated cAMP, oxotremorine agonist); assay type: cell-based
T1 construct: host or cells: HEK293 (CRL-1573, ATCC), transient
T1 sequence (P08172 1-466): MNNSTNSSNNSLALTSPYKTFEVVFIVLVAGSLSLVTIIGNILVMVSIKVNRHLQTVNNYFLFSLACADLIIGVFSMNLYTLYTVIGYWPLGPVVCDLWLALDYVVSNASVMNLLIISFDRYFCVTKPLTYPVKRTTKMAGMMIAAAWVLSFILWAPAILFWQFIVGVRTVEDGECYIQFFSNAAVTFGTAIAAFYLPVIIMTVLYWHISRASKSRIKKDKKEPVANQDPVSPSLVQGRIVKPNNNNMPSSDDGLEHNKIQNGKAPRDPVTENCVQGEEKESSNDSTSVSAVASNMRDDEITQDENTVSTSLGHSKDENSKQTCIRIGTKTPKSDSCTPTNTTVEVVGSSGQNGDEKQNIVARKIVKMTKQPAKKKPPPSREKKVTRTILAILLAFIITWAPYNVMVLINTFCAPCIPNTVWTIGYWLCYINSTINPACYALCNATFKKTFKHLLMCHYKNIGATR
Procedure: The M2R coupled to Gαi/o proteins, and its agonism functioned to decrease formation of the intracellular second messenger cyclic-adenosine-monophosphate (cAMP). […] In the presence of oxotremorine, an antagonist of the M2R would be expected to reverse the effects of the agonist, thereby increasing cAMP formation.
M2R cAMP Signaling: cAMP measurements were performed with the cAMP Hunter eXpress® CHRM2 CHO-K1 GPCR assay (Eurofins DiscoveRx, Fremont, Calif., USA) according to the manufacturer's protocol. Briefly, in the provided 96-well tissue culture-treated plate, 100 μL of human M2R expressing CHO-K1 cells were seeded in cell plating reagent and incubated (37° C., 5% CO2, 95% humidity) overnight. Cell plating reagent was replaced with 30 μL of cell assay buffer the next day. For agonist stimulation, cells were treated with increasing half-log unit concentrations of oxotremorine in the presence of 10 μM forskolin, followed by incubation for 30 minutes. A cAMP antibody, cAMP working detection solution and enzyme acceptor solution were then added according to the protocol, and the final chemiluminescent signals were detected by a Mithras LB 940 microplate reader (Berthold Technologies, Bad Wildbad, Germany). Antagonist tests were run by pretreating cells with increasing half-log unit concentrations of α-PHP, followed by incubation for one hour. Cells were then treated with EC80 concentration of oxotremorine (130 nM) and 10 μM forskolin. The same incubation and detection procedure used for agonist assays was used for the remaining steps.
(§1) Curve Fitting and Statistical Analyses: All data were analyzed by GraphPad 8.3.0 (San Diego, Calif., USA). Ki values were determined from data fit to both one- and two-site models. […] EC50 and IC50 values from functional assays were determined from data fit to the log(agonist) vs. response (three parameters) or log(inhibitor) vs. response (three parameters) model, respectively. Kb values were calculated from IC50 values using the Cheng-Prusoff equation with modification (see, e.g., Leff, P., and Dougall, I. G. (1993) Trends Pharmacol Sci 14, 110-112): Kb=IC50/((2+([A]/[A50])nH)1/nH−1)

human M5R = biological target: T2, human M5R (Homo sapiens, UniProt P08912); assay: [3H]Scopolamine radioligand competition binding at M5R
T2 construct: host or cells: HEK293 (CRL-1573, ATCC), transient
T2 sequence (P08912 1-532): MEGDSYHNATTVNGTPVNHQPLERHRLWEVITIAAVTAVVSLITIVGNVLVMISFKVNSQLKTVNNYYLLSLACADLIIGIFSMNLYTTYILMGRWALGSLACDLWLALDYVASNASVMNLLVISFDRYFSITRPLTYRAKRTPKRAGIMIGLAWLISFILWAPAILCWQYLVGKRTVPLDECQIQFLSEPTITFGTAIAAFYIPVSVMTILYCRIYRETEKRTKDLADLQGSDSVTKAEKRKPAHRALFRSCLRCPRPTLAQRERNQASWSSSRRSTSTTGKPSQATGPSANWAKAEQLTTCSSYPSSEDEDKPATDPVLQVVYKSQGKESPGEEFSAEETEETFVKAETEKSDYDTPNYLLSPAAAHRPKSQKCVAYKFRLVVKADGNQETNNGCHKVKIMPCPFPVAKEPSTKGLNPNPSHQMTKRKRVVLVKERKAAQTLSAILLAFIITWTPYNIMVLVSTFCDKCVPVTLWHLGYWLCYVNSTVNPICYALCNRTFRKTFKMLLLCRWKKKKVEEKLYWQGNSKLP
Procedure: (§2) Radioligand Competition Binding: Radioligand competition binding assays were conducted using membranes collected from transiently transfected HEK293 cells (P<20 from a procured stock, CRL-1573, ATCC, Manassas, Va., USA) as previously described (Chen, Y., et al. Drug Test Anal 11, 990-998). Briefly, cells ˜90% confluent in 10 cm plates were transfected with 5 μg human M1R, M2R, M3R, M4R or […] cDNA (cDNA resource center, Bloomsburg, Pa., USA) using a lipid-based method (LipoD293 reagent, SignaGen Laboratories, Rockville, Md., USA). Membranes were collected by centrifugation about 48 hours later and stored at −80° C. until used. […] After a 90-minute incubation at room temperature on a shaker, contents from the plates were rapidly filtered through GF/B fiberglass filter mats, pre-soaked with ice cold 50 mM Tris buffer (pH 7.4), using a Microbeta Filtermat-96 cell harvester (Perkin Elmer, Waltham, Mass., USA). Approximately 200 mL of ice cold, 50 mM Tris buffer was then vacuumed through filter mats to wash away unbound radioligand. Filter mats were dried on a hot plate and soaked in Betaplate (Perkin Elmer, Waltham, Mass., USA) scintillation fluid in plastic bags. Bags were sealed and placed in cassettes. Radioactivity was measured in a Microbeta2 Microplate Counter (Perkin Elmer, Waltham, Mass., USA), and counts per minute corresponding to each well on the plates were recorded. For full dose-response competition binding assays, increasing half-log unit concentrations of five unsubstituted PSCs were tested at M2Rs and M1Rs, with the same procedures described above.
as §1

human M3R = biological target: T3, human M3R (Homo sapiens, UniProt P20309); assay: biochemical; assay type: binding
T3 construct: host or cells: HEK293 (CRL-1573, ATCC), transient
T3 sequence (P20309 whole entry): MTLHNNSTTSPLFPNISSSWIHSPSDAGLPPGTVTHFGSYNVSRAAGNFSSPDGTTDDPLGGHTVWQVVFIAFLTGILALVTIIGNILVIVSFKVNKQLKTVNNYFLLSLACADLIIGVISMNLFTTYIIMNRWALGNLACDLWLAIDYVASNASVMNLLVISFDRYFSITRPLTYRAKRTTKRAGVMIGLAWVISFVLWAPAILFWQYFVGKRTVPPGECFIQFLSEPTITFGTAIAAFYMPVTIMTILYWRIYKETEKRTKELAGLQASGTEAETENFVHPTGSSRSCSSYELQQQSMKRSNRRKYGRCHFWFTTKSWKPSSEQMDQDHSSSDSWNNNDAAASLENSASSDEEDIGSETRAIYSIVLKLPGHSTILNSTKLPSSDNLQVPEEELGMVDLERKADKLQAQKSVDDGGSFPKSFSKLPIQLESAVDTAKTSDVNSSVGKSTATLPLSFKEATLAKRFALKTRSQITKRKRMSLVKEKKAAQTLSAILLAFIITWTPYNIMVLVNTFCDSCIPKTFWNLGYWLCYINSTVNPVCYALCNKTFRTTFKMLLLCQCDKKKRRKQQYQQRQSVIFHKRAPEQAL
Procedure: as §2, §1

[1] = human muscarinic M3 (N = 5), [3H]-N-methylscopolamine, read-out: Affinities, Ki ± SEM, nM M3

Q: With `CCCCC(C(=O)c1ccccc1)N1CCCCCC1` (stereo not drawn) [Compound (2), 2-(azepan-1-yl)-1-phenylhexan-1-one] as the compound, how does the Kb (human M2R) read?
A: 158 nM

Q: And the Ki (human M5R)?
A: 1040 nM

Q: What about the Ki (human M3R; [1]) of the same compound?
A: 988 nM

Q: What does the source list for `CCCCC(C(=O)c1ccccc1)N1CCCC1` (stereo not drawn) [α-PHP, 1-phenyl-2-(pyrrolidin-1-yl)hexan-1-one]?
A: Kb (human M2R): 120 nM; Ki (human M5R): 1510 nM; Ki (human M3R; estimate from 1 and 10 μM concentrations (N = 2), N.C. = <5% displacement of radioligand at 10 μM, read-out: estimated pKi at M3R (converted)): 1660 nM

Q: For `CCCCC(C(=O)c1ccccc1)N1CCCCC1` (stereo not drawn) [Compound (1), 1-phenyl-2-(piperidin-1-yl)hexan-1-one], which Kb (human M2R) is on record?
A: 126 nM

Q: What about the Ki (human M5R) of the same compound?
A: 679 nM

Q: What about the Ki (human M3R; [1]) of the same compound?
A: 994 nM

Source: patent publication US11912705B2, “Cathinone derivatives, pharmaceutical formulations, and methods” (The Corporation of Mercer University, priority 2020, dated 2024)
